In ChEMBL document CHEMBL4665736, “Synthesis and structural insights into the binding mode of the albomycin δ1 core and its analogues in complex with their target aminoacyl-tRNA synthetase” (Bioorg Med Chem, 2020):
pIC50: −log10 of the molar value. Values belong to the molecule of their own block, whether it stands above or below them. Activity calls are given as the source filed them. The rule behind the calls is not given here.

Assays:
[1] = system: Escherichia coli BL21(DE3); assay: (§1) Inhibition of recombinant Escherichia coli BL21(DE3) aspartyl-tRNA synthetase expressed in Escherichia coli Rosetta 2 (DE3) assessed as reduction in tRNA aminoacylation at 0.1 uM preincubated for 10 mins in presence of [14C]-aspartate and tRNA and iPPase followed by ATP addition by scintillation counting method relative to control
[2] = system: Escherichia coli BL21(DE3); assay: as §1, with “10 nM” for “0.1 uM”, “method” for “method relative to control”
[3] = as §1, with “aminoacylation” for “aminoacylation at 0.1 uM”, “method” for “method relative to control”
[4] = target: Serine--tRNA ligase (Escherichia coli (strain K12)) (UniProt P0A8L1); assay: as §1, with “seryl-tRNA” for “aspartyl-tRNA”, “10” for “0.1”, “[14C]-serine” for “[14C]-aspartate”
[5] = target: Serine--tRNA ligase (Escherichia coli (strain K12)) (UniProt P0A8L1); assay: as §1, with “seryl-tRNA” for “aspartyl-tRNA”, “1” for “0.1”, “[14C]-serine” for “[14C]-aspartate”
[6] = target: Serine--tRNA ligase (Escherichia coli (strain K12)) (UniProt P0A8L1); assay: as §1, with “seryl-tRNA” for “aspartyl-tRNA”, “[14C]-serine” for “[14C]-aspartate”
[7] = system: Escherichia coli BL21(DE3); assay: as §1, with “1” for “0.1”, “method” for “method relative to control”
[8] = system: Escherichia coli BL21(DE3); assay: Inhibition of recombinant Escherichia coli BL21(DE3) isoleucyl-tRNA synthetase expressed in Escherichia coli Rosetta 2 (DE3) assessed as reduction in tRNA aminoacylation at 10 uM preincubated for 10 mins in presence of [14C]-isoleucin and tRNA and iPPase followed by ATP addition and measured after 6 mins by scintillation counting method; details: time 16.0 min

Sequence of Serine--tRNA ligase (Escherichia coli (strain K12)) (P0A8L1 whole entry, looked up): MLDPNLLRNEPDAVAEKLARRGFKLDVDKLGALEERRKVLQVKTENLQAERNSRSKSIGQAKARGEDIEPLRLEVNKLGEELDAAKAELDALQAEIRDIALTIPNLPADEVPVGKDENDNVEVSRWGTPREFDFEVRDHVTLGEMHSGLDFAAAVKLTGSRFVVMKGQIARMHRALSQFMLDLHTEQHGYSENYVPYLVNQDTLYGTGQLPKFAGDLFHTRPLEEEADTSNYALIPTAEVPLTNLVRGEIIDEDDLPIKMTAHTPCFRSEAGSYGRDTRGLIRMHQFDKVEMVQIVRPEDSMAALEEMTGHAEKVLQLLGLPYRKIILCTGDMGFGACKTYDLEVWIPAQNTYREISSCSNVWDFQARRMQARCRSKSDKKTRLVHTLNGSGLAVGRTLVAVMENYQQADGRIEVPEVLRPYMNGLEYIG

inhibition [5]: 80%
inhibition [6]: 50%
SMILES: Cn1c(=O)ccn([C@@H]2S[C@H]([C@@H](O)[C@@H](NC(=O)[C@@H](N)CO)C(=O)O)[C@H](O)[C@H]2O)c1=O

inhibition [8]: inactive
SMILES: CC[C@H](C)[C@H](N)C(=O)NC(C(=O)O)C(O)[C@H]1S[C@@H](n2ccc(=O)n(C)c2=O)[C@H](O)[C@H]1O (mixture of isomers)

The next lines start with the molecule.

SMILES: Cn1c(=O)ccn([C@@H]2S[C@H]([C@@H](O)[C@@H](NC(=O)[C@@H](N)CC(=O)O)C(=O)O)[C@H](O)[C@H]2O)c1=O
inhibition [1]: 60%
inhibition [2]: Active
pIC50 [3]: 7.51

SMILES: Cn1c(=O)ccn([C@@H]2S[C@H]([C@H](O)[C@H](NC(=O)[C@@H](N)CO)C(=O)O)[C@H](O)[C@H]2O)c1=O
inhibition [4]: 25%

SMILES: Cn1c(=O)ccn([C@@H]2S[C@H]([C@H](O)[C@H](NC(=O)[C@@H](N)CC(=O)O)C(=O)O)[C@H](O)[C@H]2O)c1=O
inhibition [7]: inactive
